Earlier results in paper PMC9176062, “Phase Ib study of combinations of avadomide (CC‐122), CC‐223, CC‐292, and rituximab in patients with relapsed/refractory diffuse large B‐cell lymphoma” (EJHaem, 2022).

Tested on: R/R DLBCL
Conditions: cited from earlier work; for CR rates: monotherapy, third‐line setting
[1] = patients with a complete response

## O=C(/C=C\n1cnc(-c2cc(C(F)(F)F)cc(C(F)(F)F)c2)n1)NNc1cnccn1 [selinexor, reference compound]
  CR rates: 12%

## lisocabtagene maraleucel
[1]
  estimated 12‐month PFS rate: 65%

## axicabtagene ciloleucel
[1]
  24‐month PFS: 72%

## loncastuximab tesirine [reference compound]
  CR rates: 24%
